“And” between values parts separate entries of the source, which are not always exact repeats. Equal entries are not always repeated. Where two headings read alike, the source gives them in different places.
Columns and labels:
H-460 [1] = test: 3H-TdR incorporation at 72 hr (24 hr drug exposure, wash, 48 hr); type: cell-based, Human
Procedure: (§1) Exposition of 24 hr to drug, wash, incubated for another 48 hr (total of 72 hr assay)
(§2) (3H-Thymidine Incorporation Assay)

MCF-7 = test: as above; type: cell-based, Human
Procedure: as §1, §2

SF-268 = test: as above; type: cell-based, Human; conditions: 24 h drug exposure, 72 hr assay
Procedure: as §1, §2

CCRF-CEM [2] = test: as above; type: cell-based; conditions: read-out: IC50 in μM (3H-TdR incorporation at 72 hr) CCRF-CEM 24 h, CCRF-CEM T-cell Leukemia, 72 hr assay
Procedure: as §1, §2

CEM/dCK- [3] = test: as above; type: cell-based; conditions: for IC50: 24 h drug exposure, 72 hr assay; for Factor* (Resistance Factor = Ratio of dCK- on Wild-type CCRF-CEM): ratio of IC50 CEM/dCK- to IC50 CCRF-CEM
Procedure: as §1, §2

H-460 [4] = test: 3H-TdR (3H-thymidine) incorporation assay at 72 hr; type: cell-based, Human; conditions: 3H-TdR incorporation at 72 hr
CCRF-CEM [5] = test: 3H-TdR (3H-thymidine) incorporation assay at 72 hr; type: cell-based; conditions: 3H-TdR incorporation at 72 hr
Procedure: (§3) Table of IC50 Values (μM) for Controls
as §1, §2

CEM/dCK- [6] = test: 3H-TdR (3H-thymidine) incorporation assay at 72 hr; type: cell-based; conditions: Homo sapiens, CCRF-CEM, read-out: IC50 CEM/dCK- 24 h, 24 h drug exposure, wash, another 48 hr; deoxycytidine kinase-deficient CCRF-CEM
Procedure: as §3, §1, §2

[7] = Homo sapiens, NCI-H460, read-out: IC50 in μM (3H-TdR incorporation at 72 hr) H-460 24 h, H-460 Human Lung Carcinoma, 72 hr assay
[8] = Homo sapiens, MCF7, read-out: IC50 in μM (3H-TdR incorporation at 72 hr) MCF-7 24 h, MCF-7 Human Breast Carcinoma, 72 hr assay
[9] = Homo sapiens, SF-268, read-out: IC50 in μM (3H-TdR incorporation at 72 hr) SF-268 24 h, SF-268 Human Central Nervous System Tumor
[10] = Homo sapiens, CCRF-CEM, read-out: IC50 in μM (3H-TdR incorporation at 72 hr) CEM/dCK- 24 h, CCRF-CEM deoxycytidine kinase-deficient
[11] = read-out: IC50 in μM (3H-TdR incorporation at 72 hr) H-460 24 h, H-460 Human Lung Carcinoma, 72 hr assay
[12] = read-out: IC50 in μM (3H-TdR incorporation at 72 hr) MCF-7 24 h, MCF-7 Human Breast Carcinoma, 72 hr assay
[13] = read-out: IC50 in μM (3H-TdR incorporation at 72 hr) SF-268 24 h, SF-268 Human Central Nervous System Tumor
[14] = read-out: IC50 in μM (3H-TdR incorporation at 72 hr) CEM/dCK- 24 h, CCRF-CEM deoxycytidine kinase-deficient

| SMILES | IC50 (H-460 [1]; [7]) [µM] | IC50 (MCF-7; [8]) [µM] | IC50 (SF-268; [9]) [µM] | IC50 (CCRF-CEM [2]; Homo sapiens, CCRF-CEM) [µM] | IC50 (CEM/dCK- [3]; [10]) [µM] | IC50 (CCRF-CEM [2]) | also measured |
| --- | --- | --- | --- | --- | --- | --- | --- |
| CN(C)CCCCOC(=O)Nc1ccn([C@@H]2CO[C@H](CO)O2)c(=O)n1.O=C(O)C(F)(F)F [Compound 169, [1-(2-HYDROXYMETHYL- [1,3]DIOXOLAN-4-YL)-2- OXO-1,2-DIHYDRO- PYRIMIDIN-4-YL]- CARBAMIC ACID 4- DIMETHYLAMINO-BUTYL ESTER TRIFLUOROACETIC ACID SALT] | 8.2 | 5.1 | 7.1 | 2 | > 100 | – | Factor* (Resistance Factor = Ratio of dCK- on Wild-type CCRF-CEM) (CEM/dCK- [3]): >50 |
| CC(C)Cc1ccc([C@H](C)C(=O)Nc2ccn([C@@H]3CO[C@H](CO)O3)c(=O)n2)cc1 [Compound 242, N-[1-(2-HYDROXYMETHYL- [1,3]DIOXOLAN-4-YL)-2- OXO-1,2-DIHYDRO- PYRIMIDIN-4-YL]-2-(4- ISOBUTYL-PHENYL)- PROPIONAMIDE] | 0.25 | 0.001 | 1.1 | 0.23 | 93 | – | Factor* (Resistance Factor = Ratio of dCK- on Wild-type CCRF-CEM) (CEM/dCK- [3]): 404 |
| O=c1nc(NS(=O)(=O)c2ccc([N+](=O)[O-])cc2)ccn1[C@@H]1CO[C@H](CO)O1 [Compound 168, N-[1-(2-HYDROXYMETHYL- [1,3]DIOXOLAN-4-YL)-2- OXO-1,2-DIHYDRO- PYRIMIDIN-4-YL]-4- NITRO- BENZENESULFONAMIDE] | – | – | – | 31 | > 100 | 22 µM and 20 µM | – |
| O=C(Nc1ccn([C@@H]2CO[C@H](CO)O2)c(=O)n1)C1(c2ccccc2)CCCC1 [Compound 229, 1-PHENYL- CYCLOPENTANECARBOXYLIC ACID [1-(2- HYDROXYMETHYL- [1,3]DIOXOLAN-4-YL)-2- OXO-1,2-DIHYDRO- PYRIMIDIN-4-YL]-AMIDE] | 13 | 15 | – | 11 | > 100 | – | IC50 (H-460 [1]; [11]): 14 µM; IC50 (MCF-7; [12]): 18 µM; Factor* (Resistance Factor = Ratio of dCK- on Wild-type CCRF-CEM) (CEM/dCK- [3]): >9 |
| CC(C)(C)OC(=O)N(CCCCCCNC(=O)OC[C@H]1OC[C@@H](n2ccc(N)nc2=O)O1)Cc1ccccc1 [Compound 214, {6-[4-(4-AMINO-2-OXO- 2H-PYRIMIDIN-1-YL)- [1,3]DIOXOLAN-2- YLMETHOXYCARBONYLAMINO]-HEXYL}-BENZYL-CARBAMIC ACID TERT-BUTYL ESTER] | 9.4 | 9.4 | 89 | – | > 100 | – | – |
| Nc1ccn([C@@H]2CO[C@H](COC(=O)CCCCCCCc3ccccc3)O2)c(=O)n1 [Compound 198, 8-PHENYL-OCTANOIC ACID 4-(4-AMINO-2-OXO-2H- PYRIMIDIN-1-YL)- [1,3]DIOXOLAN-2-YL METHYL ESTER] | < 0.0001 | – | < 0.0001 | < 0.0001 | – | – | – |
| CCCCC(CC)(CC)C(=O)OC[C@H]1OC[C@@H](n2ccc(N)nc2=O)O1 [Compound 218, 2,2-DIETHYL-HEXANOIC ACID 4-(4-AMINO-2-OXO- 2H-PYRIMIDIN-1-YL)- [1,3]DIOXOLAN-2-YL METHYL ESTER] | 0.0091 | 0.052 | 0.081 | – | 60 | – | – |
| O=C(CCCCCCCc1ccccc1)Nc1ccn([C@@H]2CO[C@H](CO)O2)c(=O)n1 [Compound 197, 8-PHENYL-OCTANOIC ACID [1-(2-HYDROXYMETHYL- [1,3]DIOXOLAN-4-YL)-2- OXO-1,2-DIHYDRO- PYRIMIDIN-4-YL]-AMIDE] | < 0.0001 | < 0.0001 | < 0.0001 | < 0.0001 | – | – | – |
| Nc1ccn([C@@H]2CO[C@H](COC(=O)c3ccc(Cl)c(Cl)c3)O2)c(=O)n1 [Compound 187, 3,4-DICHLORO-BENZOIC ACID 4-(4-AMINO-2-OXO- 2H-PYRIMIDIN-1-YL)- [1,3]DIOXOLAN-2-YL METHYL ESTER] | – | – | – | – | – | 0.0017 µM | IC50 (H-460 [1]; [11]): 0.0014 µM; IC50 (MCF-7; [12]): 0.0042 µM |
| Nc1ccn([C@@H]2CO[C@H](COC(=O)c3ccccc3-c3ccccc3)O2)c(=O)n1 [Compound 209, BIPHENYL-2-CARBOXYLIC ACID 4-(4-AMINO-2-OXO- 2#H!-PYRIMIDIN-1-YL)- [1,3]DIOXOLAN-2-YL METHYL ESTER] | 0.31 | 1.3 | 0.59 | – | > 100 | – | – |
| CCC(CC)(CCCCCCc1ccccc1)C(=O)OC[C@H]1OC[C@@H](n2ccc(N)nc2=O)O1 [Compound 233, 2,2-DIETHYL-8-PHENYL- OCTANOIC ACID 4-(4- AMINO-2-OXO-2H- PYRIMIDIN-1-YL)- [1,3]DIOXOLAN-2-YL METHYL ESTER] | – | 13 | 12 | 11 | 18 | 9.7 µM | IC50 (MCF-7; [12]): 9.6 µM and 11 µM; IC50 (SF-268; [13]): 17 µM and 15 µM; IC50 (CEM/dCK- [3]; [14]): 22 µM |
| CCCCCCc1ccc(C(=O)OC[C@H]2OC[C@@H](n3ccc(N)nc3=O)O2)cc1 [Compound 191, 4-HEXYL-BENZOIC ACID 4- (4-AMINO-2-OXO-2H- PYRIMIDIN-1-YL)- [1,3]DIOXOLAN-2-YL METHYL ESTER] | < 0.0001 | < 0.0001 | < 0.0001 | < 0.0001 | – | – | – |
| O=C(Nc1ccn([C@@H]2CO[C@H](CO)O2)c(=O)n1)C12C[C@@H]3C[C@@H](C[C@@H]1C3)C2 (stereo in doubt) [Compound 231, Hexahydro-2,5-Methano-Pentalene-3A-Carboxylic Acid [1-(2-Hydroxymethyl-[1,3]Dioxolan-4-Yl)-2-Oxo-1,2-Dihydro-Pyrimidin-4-Yl]-Amide] | – | – | 1.1 | 0.076 | > 100 | – | – |
| O=c1nc(NCNc2ccccc2)ccn1[C@@H]1CO[C@H](CO)O1 [Compound 172, 1-(2-HYDROXYMETHYL- [1,3]DIOXOLAN-4-YL)-4- (PHENYLAMINOMETHYL- AMINO)-1H-PYRIMIDIN-2- ONE] | 0.014 | 0.019 | – | 0.0074 | – | 0.0085 µM | IC50 (H-460 [1]; [11]): 0.015 µM; IC50 (MCF-7; [12]): 0.036 µM |
| Nc1ccn([C@@H]2CO[C@H](COC(=O)NCCCc3ccccc3)O2)c(=O)n1 [Compound 215, (3-PHENYL-PROPYL)- CARBAMIC ACID 4-(4- AMINO-2-OXO-2H- PYRIMIDIN-1-YL)- [1,3]DIOXOLAN-2-YL METHYL ESTER] | 3.9 | 33 | 96 | – | > 100 | – | – |
| Cc1cccc(C)c1C(=O)OC[C@H]1OC[C@@H](n2ccc(N)nc2=O)O1 [Compound 162, 1-[2-(2,6-DIMETHYL- BENZOYLOXYMETHYL)- [1,3]DIOXOLAN-4-YL]-2- OXO-1,2-DIHYDRO PYRIMIDIN-4-YL- AMMONIUM; CHLORIDE] | – | 5.7 | 12 | 3.3 | > 100 | 4.1 µM | IC50 (H-460 [4]; Homo sapiens, NCI-H460, read-out: IC50 H-460 24 h, 24 h drug exposure, wash, another 48 hr): 8.4 µM; IC50 (H-460 [4]; read-out: IC50 H-460 24 h, 24 h drug exposure, wash, another 48 hr): 6.4 µM; IC50 (MCF-7; [12]): 3.6 µM; IC50 (SF-268; [13]): 17 µM; IC50 (CCRF-CEM [5]; Homo sapiens, CCRF-CEM, read-out: IC50 CCRF-CEM 24 h, 24 h drug exposure, wash, another 48 hr): 2.2 µM; IC50 (CCRF-CEM [5]; read-out: IC50 CCRF-CEM 24 h, 24 h drug exposure, wash, another 48 hr): 2.8 µM; IC50 (CEM/dCK- [6]): > 100 µM |
| COc1ccc(C(=O)OC[C@H]2OC[C@@H](n3ccc(N)nc3=O)O2)cc1 [Compound 176, 4-METHOXY-BENZOIC ACID 4-(4-AMINO-2-OXO-2H- PYRIMIDIN-1-YL)- [1,3]DIOXOLAN-2- YLMETHYL ESTER] | 0.04 | – | 0.057 | 0.014 | 38 | 0.011 µM | IC50 (H-460 [1]; [11]): 0.043 µM; IC50 (SF-268; [13]): 0.032 µM; IC50 (CEM/dCK- [3]; [14]): 68 µM |
| CC(C)(C)C(=O)Oc1ccc(COC(=O)Nc2ccn([C@@H]3CO[C@H](COC(=O)OCc4ccc(OC(=O)C(C)(C)C)cc4)O3)c(=O)n2)cc1 [Compound 212, 2,2-Dimethylpropionic Acid 4-(1-{2-[4-(2,2-dimethylpropionyloxy)benzyloxy Carbonyloxymethyl]-[1,3]dioxolan-4-yl}-2-oxo-1,2-dihydropyrimidin-4-ylcarbamoyloxymethyl)-phenyl Ester] | 0.00011 | 0.00059 | 0.018 | – | 3.5 | – | – |

Reference: patent US20030013660A1, “Dioxolane analogs for improved inter-cellular delivery” (Shire BioChem Inc., priority 2000, published 2003)
